Reference: the supplement of paper PMC10307832

How the values were obtained:
Experiment in all cases: relative viability (nuclei count vs DMSO), 5 days (fraction); higher = more cells survive
Daporinad + Decitabine = compound: O=C(/C=C/c1cccnc1)NCCCCC1CCN(C(=O)c2ccccc2)CC1 [Daporinad] + Nc1ncn([C@H]2C[C@H](O)[C@@H](CO)O2)c(=O)n1 [Decitabine] (partner 2 µM)
Outline: (§1)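 For relative viability, nuclei counts in treated wells were divided by those in vehicle wells. Lung cancer cell lines had been pin-tool dosed in 1536-well plates the day after seeding and cultured for 5 days, then fixed and stained in one step (final 0.05% Triton X-100, 1% formaldehyde, 1 ug/ml Hoechst) and imaged at 4×. Doses were one drug alone or a fixed anchor-drug dose plus five library-drug doses (not always all listed) in √10 steps, and values are duplicate-plate medians.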

R406 + Pemetrexed = compound: COc1cc(Nc2ncc(F)c(Nc3ccc4c(n3)NC(=O)C(C)(C)O4)n2)cc(OC)c1OC [R406] + Nc1nc2[nH]cc(CCc3ccc(C(=O)N[C@@H](CCC(=O)O)C(=O)O)cc3)c2c(=O)[nH]1 [Pemetrexed] (partner 0.2 µM)
Outline: as §1

Daporinad + OSI-027 = compound: O=C(/C=C/c1cccnc1)NCCCCC1CCN(C(=O)c2ccccc2)CC1 [Daporinad] + COc1cccc2cc(-c3nc([C@H]4CC[C@H](C(=O)O)CC4)n4ncnc(N)c34)[nH]c12 [OSI-027] (partner 0.5 µM)
Outline: as §1

Daporinad + Olaparib = compound: O=C(/C=C/c1cccnc1)NCCCCC1CCN(C(=O)c2ccccc2)CC1 [Daporinad] + O=C(c1cc(Cc2n[nH]c(=O)c3ccccc23)ccc1F)N1CCN(C(=O)C2CC2)CC1 [Olaparib] (partner 8 µM)
Outline: as §1

Row | Cell Line | relative viability (Daporinad + Decitabine; first compound 0.0005 µM) | relative viability (Daporinad + Decitabine; first compound 0.001581 µM) | relative viability (Daporinad + Decitabine; first compound 0.005 µM) | relative viability (Daporinad + Decitabine; first compound 0.01581 µM) | relative viability (R406 + Pemetrexed; first compound 0.08 µM) | relative viability (R406 + Pemetrexed; first compound 0.253 µM) | relative viability (R406 + Pemetrexed; first compound 0.8 µM) | relative viability (R406 + Pemetrexed; first compound 2.53 µM) | relative viability (R406 + Pemetrexed; first compound 8 µM) | relative viability (Daporinad + OSI-027; first compound 0.0005 µM) | relative viability (Daporinad + OSI-027; first compound 0.001581 µM) | relative viability (Daporinad + OSI-027; first compound 0.005 µM) | relative viability (Daporinad + OSI-027; first compound 0.01581 µM) | relative viability (Daporinad + Olaparib; first compound 0.0005 µM) | relative viability (Daporinad + Olaparib; first compound 0.001581 µM) | relative viability (Daporinad + Olaparib; first compound 0.005 µM) | relative viability (Daporinad + Olaparib; first compound 0.01581 µM)
1 | NCI-H441 | 0.249 | 0.204 | 0.281 | 0.237 | 0.219 | 0.261 | 0.263 | 0.257 | 0.234 | 0.552 | 0.856 | 0.805 | 0.671 | 0.488 | 0.554 | 0.344 | 0.237
2 | LU99A | 0.898 | 0.908 | 0.943 | 0.645 | 0.188 | 0.183 | 0.224 | 0.187 | 0.172 | 0.33 | 0.282 | 0.358 | 0.305 | 0.188 | 0.198 | 0.199 | 0.186
3 | NCI-H1355 | 0.373 | 0.356 | 0.323 | 0.369 | 1.09 | 1.09 | 1.09 | 0.982 | 0.911 | 0.375 | 0.433 | 0.471 | 0.548 | 0.693 | 0.737 | 0.6 | 0.479
4 | HCC-78 | 0.805 | 0.744 | 0.669 | 0.65 | 0.807 | 0.972 | 0.962 | 0.847 | 0.878 | 0.378 | – | 0.383 | 0.368 | 0.531 | 0.786 | 0.649 | 0.559
5 | NCI-H1563 | – | – | – | – | 0.707 | 0.929 | 0.794 | 0.659 | 0.444 | 0.754 | 0.749 | 0.807 | 0.719 | – | – | – | –
6 | HCC-15 | 0.601 | 0.714 | 0.771 | 0.766 | 0.213 | 0.223 | 0.2 | 0.201 | 0.144 | 0.669 | 0.807 | 0.789 | 0.779 | 0.67 | 0.642 | 0.467 | 0.35
7 | EKVX | 0.307 | 0.391 | 0.36 | 0.359 | 0.374 | 0.467 | 0.395 | 0.365 | 0.387 | 0.692 | 0.738 | 0.683 | 0.806 | 0.861 | 0.912 | 0.788 | 0.615
8 | NCI-H2087 | 0.264 | 0.317 | 0.329 | 0.277 | 0.712 | 0.733 | 0.683 | 0.746 | 0.679 | 0.474 | 0.693 | 0.694 | 0.538 | 0.69 | 0.575 | 0.205 | 0.236
9 | LK-2 | 0.338 | 0.323 | 0.228 | 0.13 | 0.192 | 0.326 | 0.38 | 0.191 | 0.126 | 0.225 | 0.241 | 0.18 | 0.192 | 0.657 | 0.459 | 0.394 | 0.28
10 | NCI-H1437 | 0.554 | 0.565 | 0.614 | 0.575 | 0.297 | 0.316 | 0.317 | 0.259 | 0.203 | 0.851 | 0.885 | 0.885 | 0.882 | 0.619 | 0.624 | 0.633 | 0.548
